In patent US20240043943A1, “METHODS AND COMPOSITIONS FOR PROTEASE REPORTER ASSAYS AND MODULATORS” (712 NORTH, INC., priority 2021, published 2024):
“Also recorded” adds a separate entry of the source.

Columns and labels:
Luke-TEV reporter [1] = assay: Luke-TEV control reporter bioluminescence assay in Hek293T cells; assay type: cell-based, human
Description: (§1) Luke-S1 is targeted to the mitochondrial inner membrane by an 86 amino acid portion of OPA1's […] with the protein sequence SEQ ID NO: 27 and the DNA sequence SEQ ID ID NO:28.

[2] = target: T1, Luke (native NanoLuc enzyme) (Oplophorus gracilirostris, UniProt Q9GV45, A31E/A60N/A81I/F95D/I117V/K70R/L54V/L99Q/M102K/N193R/P142E/Q151K/Q38R/Q45L/V71I/Y165I); assay: Luke (native NanoLuc) control cell bioluminescence assay in Hek293T cells; assay type: cell-based; settings: for bioluminescence of Luke cells in dose-response: 30 minutes incubation
T1 construct: expressed in transfected cells
Description: as §1

OPA1 = OPA1 hydrolysis in Hek293T cells by Western blot; assay type: cell-based, human; settings: 30 minutes
Description: (§2) OPA1 hydrolysis can be monitored by Western blotting. […] The predicted size of full-length Luke-S1 is 31.8 kDa.

Luke-S1 reporter = assay: Rep#15 / Luke-S1 reporter cleavage in Hek293T cells by Western blot; assay type: cell-based, human; settings: for cleavage of the Luke-S1 reporter in Western blots: 3 μM CCCP or 100 nM valinomycin
Procedure: For this example, transfected cells were selected by puromycin. […] […] If reporter #15 indeed is cleaved by OMA1, then phenanthroline should prevent this at least to a certain extend by inhibiting OMA1 and accordingly preserving the signal. Hek293T cells were transfected with reporter gene #15 as described in the preceding example. After 24 hours, the transfected cells were incubated with 500 μM phenanthroline in OptiMEM. After 1 hour of pretreatment, CCCP in OptiMEM/phenanthroline was added. to a final concentration of 10 μM CCCP and cells incubated for another 30 minutes at 37° C. After 30 minutes, the medium was replaced with furimazine (1:100 in OptiMEM), and bioluminescence measured as described in Example 1.
as §2

Luke-TEV reporter [3] = assay: Luke-TEV reporter cleavage in Hek293T cells by Western blot; assay type: cell-based, human; settings: 3 μM CCCP or 100 nM valinomycin
Description: as §2

OMA1 protease [4] = target: T2, OMA1 protease (Homo sapiens, UniProt Q96E52); settings: literature; cited from earlier work
T2 sequence (Q96E52 144-524): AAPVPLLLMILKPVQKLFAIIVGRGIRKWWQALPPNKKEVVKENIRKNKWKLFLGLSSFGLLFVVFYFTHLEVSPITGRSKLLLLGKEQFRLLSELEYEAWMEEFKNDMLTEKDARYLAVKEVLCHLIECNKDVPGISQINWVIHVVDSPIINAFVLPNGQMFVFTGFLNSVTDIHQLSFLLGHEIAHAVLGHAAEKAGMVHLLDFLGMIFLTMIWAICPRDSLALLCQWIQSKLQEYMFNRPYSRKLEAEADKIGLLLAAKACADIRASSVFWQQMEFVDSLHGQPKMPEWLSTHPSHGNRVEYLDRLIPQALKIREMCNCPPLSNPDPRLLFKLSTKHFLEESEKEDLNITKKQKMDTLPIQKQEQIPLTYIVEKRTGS

OMA1 protease [5] = target: T2, OMA1 protease; assay: Screen of 166 FDA-approved cancer drugs and 390 natural products in Luke-S1 assays; assay type: cell-based; set-up: The OMA1 enzyme is dormant under physiological cell culture conditions in these cells; endogenous in cells; host or cells: Hek293T cells, transiently or stably (Luke-S1 line, ATCC PTA-127022) expressing reporter #15; settings: valinomycin treated controls, ± SD
Procedure: Luke-S1 reporter cells were incubated with 10 μM of drugs for 60 minutes after which luciferase substrate was added and bioluminescence measured.

OMA1 protease [6] = target: T2, OMA1 protease; assay: Rep#15 / Luke-S1 OMA1 reporter bioluminescence assay in Hek293T cells; assay type: cell-based; set-up: The OMA1 enzyme is dormant under physiological cell culture conditions in these cells; endogenous in cells; host or cells: Hek293T cells, transiently or stably (Luke-S1 line, ATCC PTA-127022) expressing reporter #15
reporter #01 = assay: Rep#01 reporter hydrolysis in Hek293T cells by Western blot; assay type: cell-based, human; settings: 10 μM CCCP, 30 minutes
Procedure: Example 2 refers to FIG. 4 and illustrates hydrolysis of reporter #01 and reporter #15. For this example, transfected cells were selected by puromycin. Reporter cells were exposed for 30 minutes to 10 μM CCCP before being harvested in RIPA buffer and subjected to 12% SDS-PAGE followed by Western-blotting. […] Full-length reporter #01 has a predicted size of 39.6 kDa but was not detected in Western blots. […] At the same time, reporter #15 is not processed upon import, but migrated at its expected size of 31.9 kDa. (Example 7 establishes mitochondrial import by showing co-migration of reporter #15 with OPA1 and OMA1 in mitochondria-enriched fractions.) Reporter #15 appears to be more abundant and stable, which may explain its better performance. […] This provides additional evidence that reporter #15 is indeed localized in mitochondria where it is recognized and hydrolyzed by OMA1. […] Therefore, phenanthroline was used as a positive control in the reporter assay. If reporter #15 indeed is cleaved by OMA1, then phenanthroline should prevent this at least to a certain extend by inhibiting OMA1 and accordingly preserving the signal. Hek293T cells were transfected with reporter gene #15 as described in the preceding example. […] After 30 minutes, the medium was replaced with furimazine (1:100 in OptiMEM), and bioluminescence measured as described in Example 1.

OMA1 protease [7] = target: T2, OMA1 protease; assay: Rep#15 / Luke-S1 OMA1 reporter bioluminescence assay in Hek293T cells; assay type: cell-based; set-up: The OMA1 enzyme is dormant under physiological cell culture conditions in these cells; endogenous in cells; host or cells: Hek293T cells, transiently or stably (Luke-S1 line, ATCC PTA-127022) expressing reporter #15; settings: Hek293T, 30 minutes exposure; CCCP 10 μM
Description: Example 1 provides a nonlimiting example of generation and use of a reporter of present invention and illustrates its function. To this end, generation and use of reporter gene #01 (SEQ ID NO: 01) and reporter gene #15 (SEQ ID NO: 15) are described and their function compared to each other. The general design of a reporter of present invention is illustrated in FIG. 1A and its working principle in FIG. 1B. A reporter in general, and reporter gene #01 and reporter gene #15 in particular, can be generated as follows. DNA sequences of a reporter may be codon-optimized in silico or by any other way for expression in a suitable host. DNA sequences of reporter genes #01 and #15 were codon-optimized for expression in humans (SEQ ID NO: 02 and SEQ ID NO: 16, respectively). The (optimized) sequences were synthesized and cloned into a pcDNA3.1 expression vector under the control of a CMV promotor (see FIG. 1 for an illustration of such vector). Of course, an expression system and a host should match for best results. The host in this example were Hek293T cells, which were maintained under standard culture conditions in DMEM with 10% Fetal Bovine Serum and 1% Pen/Strep. For an experiment, Hek293T cells were seeded in opaque white tissue-culture treated 96-well plates at 80% confluency and transfected with vectors carrying reporter gene #01 and reporter gene #15 and 24 hours later incubated for 30 minutes at 37° C. in OptiMEM or in OptiMEM with 10 μM CCCP. After 30 minutes, the OptiMEM cell-culture media was replaced with luciferase substrate (furimazine, Promega) diluted 1:100 in OptiMEM, and bioluminescence was measured with a Fluoroskan Ascent FL (Thermo Scientific) using a 517 nm single-pass filter and 200 milliseconds integration time. […] Reporter #01 comprises a large part of OPA1's amino-terminus as mitochondrial targeting sequence, which is cleaved by the mitochondrial processing peptidase upon mitochondrial import (see Example 2). Reporter #15 was initially envisioned as a control for reporter #01. Reporter #15 therefore lacks the first 66 amino acids of reporter #01 believed to be essential for mitochondrial import.
Example 5 illustrates how mitochondrial toxicity can be measured with reporter and assays of present invention. The OMA1-OPA1 pathway basically serves as a “canary-in-the-coalmine” for a mitochondrial deterioration. […] Hek293T cells expressing reporter #01 and #15 were exposed to CCCP, tipranavir and sorafenib (in OptiMEM) for 30 minutes before the medium was replaced with furimazine (1:100), and bioluminescence measured.
The following non-limiting examples illustrate in more details the in vivo assessment of OMA1 protease activity utilizing an artificial luciferase reporter of present invention stably expressed in Hek293T cells.

OMA1 protease [8] = target: T2, OMA1 protease; assay: Rep#01 OMA1 reporter bioluminescence assay in Hek293T cells; assay type: cell-based; set-up: The OMA1 enzyme is dormant under physiological cell culture conditions in these cells; endogenous in cells; host or cells: Hek293T cells, transiently or stably (Luke-S1 line, ATCC PTA-127022) expressing reporter #15; settings: 30 minutes exposure, CCCP 10 μM
Description: Example 1 provides a nonlimiting example of generation and use of a reporter of present invention and illustrates its function. To this end, generation and use of reporter gene #01 (SEQ ID NO: 01) and reporter gene #15 (SEQ ID NO: 15) are described and their function compared to each other. The general design of a reporter of present invention is illustrated in FIG. 1A and its working principle in FIG. 1B. A reporter in general, and reporter gene #01 and reporter gene #15 in particular, can be generated as follows. DNA sequences of a reporter may be codon-optimized in silico or by any other way for expression in a suitable host. DNA sequences of reporter genes #01 and #15 were codon-optimized for expression in humans (SEQ ID NO: 02 and SEQ ID NO: 16, respectively). The (optimized) sequences were synthesized and cloned into a pcDNA3.1 expression vector under the control of a CMV promotor (see FIG. 1 for an illustration of such vector). Of course, an expression system and a host should match for best results. The host in this example were Hek293T cells, which were maintained under standard culture conditions in DMEM with 10% Fetal Bovine Serum and 1% Pen/Strep. For an experiment, Hek293T cells were seeded in opaque white tissue-culture treated 96-well plates at 80% confluency and transfected with vectors carrying reporter gene #01 and reporter gene #15 and 24 hours later incubated for 30 minutes at 37° C. in OptiMEM or in OptiMEM with 10 μM CCCP. After 30 minutes, the OptiMEM cell-culture media was replaced with luciferase substrate (furimazine, Promega) diluted 1:100 in OptiMEM, and bioluminescence was measured with a Fluoroskan Ascent FL (Thermo Scientific) using a 517 nm single-pass filter and 200 milliseconds integration time. […]
Example 5 illustrates how mitochondrial toxicity can be measured with reporter and assays of present invention. […] Hek293T cells expressing reporter #01 and #15 were exposed to CCCP, tipranavir and sorafenib (in OptiMEM) for 30 minutes before the medium was replaced with furimazine (1:100), and bioluminescence measured.

T1 sequence (Q9GV45 with tags, fused parts or gaps with the stated changes): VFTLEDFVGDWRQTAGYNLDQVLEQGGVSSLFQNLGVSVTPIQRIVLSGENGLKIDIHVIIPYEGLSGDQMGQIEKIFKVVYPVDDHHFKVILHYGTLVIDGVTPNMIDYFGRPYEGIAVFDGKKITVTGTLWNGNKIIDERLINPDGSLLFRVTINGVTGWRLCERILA

| SMILES | real-time bioluminescence of Luke-TEV vs cells without valinomycin (Luke-TEV reporter [1]; 100 nM valinomycin added with luciferase substrate) | signal of Luke-TEV cells in dose-response (Luke-TEV reporter [1]; 30 minutes incubation) | real-time bioluminescence of Luke vs cells without valinomycin ([2]; 100 nM valinomycin added with luciferase substrate, after 10 minutes) | bioluminescence of Luke cells in dose-response [2] | L-OPA1 proteolysis in Western blots (OPA1; 0.1 μM (100 nM) valinomycin) | cleavage of the Luke-S1 reporter in Western blots (Luke-S1 reporter) | cleavage of the Luke-TEV reporter in Western blots (Luke-TEV reporter [3]) | effect on OMA1 protease (OMA1 protease [4]) | signal intensity normalized to untreated cells (100%) (OMA1 protease [5]) | real-time bioluminescence of Luke-S1 vs cells without valinomycin (OMA1 protease [6]; 100 nM valinomycin added with luciferase substrate, 25 minutes recording) | Luke-S1 signal in cells treated with OMA1 siRNA (OMA1 protease [6]; 100 nM valinomycin, 30 minutes) | Luke-S1 signal in cells treated with control siRNA (OMA1 protease [6]; 100 nM valinomycin, 30 minutes) | Luke-S1 signal in cells treated with OMA1 siRNA (OMA1 protease [6]; 100 nM valinomycin, 30 minutes, listed as Valinomycin) | EC50 (Luke-TEV reporter [1]; Luke-TEV cells, 30 minutes incubation) | L-OPA1 proteolysis in Western blots (OPA1; 3 μM CCCP) | processing of reporter #15 in Western blot (Luke-S1 reporter; 10 μM CCCP, 30 minutes) | processing of reporter #01 in Western blot (reporter #01) | bioluminescence signal of reporter #15 (OMA1 protease [7]) | bioluminescence signal of reporter #01 (OMA1 protease [8]) |
| --- | --- | --- | --- | --- | --- | --- | --- | --- | --- | --- | --- | --- | --- | --- | --- | --- | --- | --- | --- |
| CC(C)[C@@H]1NC(=O)[C@H](C)OC(=O)[C@@H](C(C)C)NC(=O)[C@@H](C(C)C)OC(=O)[C@H](C(C)C)NC(=O)[C@H](C)OC(=O)[C@@H](C(C)C)NC(=O)[C@@H](C(C)C)OC(=O)[C@H](C(C)C)NC(=O)[C@H](C)OC(=O)[C@@H](C(C)C)NC(=O)[C@@H](C(C)C)OC1=O [valinomycin] | much smaller difference | only a minor signal reduction | no notable differences | no effects | sufficed for OPA1 cleavage; also recorded: complete L-OPA1 proteolysis | induced cleavage of the Luke-S1 reporter; also recorded: induced Luke-S1 and Luke-TEV cleavage | cleaved; also recorded: induced Luke-S1 and Luke-TEV cleavage | can activate the OMA1 protease | 18.5% | marked signal reduction | no significant signal reduction | significant signal reduction | not in Luke-S1 cells treated with OMA1 siRNA |  |  |  |  |  |  |
| N#CC(C#N)=NNc1cccc(Cl)c1 [CCCP, carbonyl cyanide m-chlorophenyl hydrazone] |  |  |  | completely eliminated |  | induced cleavage of the Luke-S1 reporter; also recorded: induced Luke-S1 and Luke-TEV cleavage | cleaved; also recorded: induced Luke-S1 and Luke-TEV cleavage |  |  |  |  |  |  | 0.566 µM | complete disappearance of L-OPA1 isoforms; also recorded: complete L-OPA1 proteolysis | led to processing | led to processing | significantly reduced or substantially absent luciferase activity; also recorded: abolished; also recorded: significantly reduced bioluminescence | significantly reduced bioluminescence |
